# Results published in US10428347B2, “Herbicide-detoxifying enzymes and uses thereof” (priority 2017, dated 2019).
# Values joined by “and” are separate entries in the source; they are usually repeats but may differ in a detail not shown here. Identical values can stand only once. Like-named read-outs stand apart in the source and are kept apart here.
# Legend:
# soybean plants [1] = assay: V1 soybean bioassay of dicamba reacted with ChD with or without MnSO4
# Protocol: Soybean plants (variety Morsoy Xtra) were planted in Timberline soil (2 seeds per pot) and grown for 12 days under controlled environmental growth conditions: 300 μmol m^−2 s^−1 (light photons) for a 13/11 light/day cycle and a 21° C. day/15° C. night temperature range until the V1 stage of development.
# The dilution to achieve 100 ppm or 100 mg/L was made in 25 mM HEPES pH 7 in a 10 mL total volume. […] The ChD enzyme production was centrifuged to remove any cellular debris and then divided into aliquots of 100 μL containing the Bacillus subtillis (A64) filtrate with the ChD expressed enzyme. […] The reactions were incubated at 37° C. with 400 ppm stirring for two hours. Aliquots of the reactions were collected and stored at −80° C.
# [2] = Absorbance spectra assay of dicamba degradation by ChD or CAC
# soybean seedlings = assay: Spray of enzyme-treated dicamba solution onto soybean seedlings; type: in vivo; conditions: 2.5-week-old soybean seedlings sprayed with 208 μM dicamba solution with or without immobilized enzyme, one week
# Protocol: Salicylate monooxygenase (SM, SEQ ID NO: 21) and hydroxyphenylacetate monooxygenase (HPAM, SEQ ID NO: 30) were immobilized on particles. […] Aliquots (1 ml) were taken from incubated samples at 0 minutes, 10 minutes, 30 minutes, 1 hour, 5 hours, 24 hours and 30 hours after the introduction of SM and immediately frozen to stop the detoxification reaction. NADPH consumption was quantified by measuring loss of absorbance at 340 nm using a spectrophotometer. Results for SM are shown in panel A of FIG. 10 and results for HPAM are shown in panel A of FIG. 11. Consumption of NADPH is proportional to the degradation of dicamba.
# Immediately after taking the absorbance measurements, the 1 ml aliquots were mixed with a nonionic organosilicone surfactant copolymer (0.1% SILWET L77) and 200 μL of the mixture was sprayed onto 2.5-week-old soybean seedlings (six plants per treatment group, on average). The use of the surfactant ensured even distribution of the solutions on the plants. Control plants were sprayed with water+surfactant alone or dicamba+surfactant alone. After one week, the degree of herbicide damage or the degree of protection from dicamba-induced injury (in plants treated with SM) was assessed visually.
# [3] = Spray tank cleaning procedure using salicylate monooxygenase to remove dicamba; conditions: spray application using dicamba
# sensitive plants = conditions: in vivo; cited from earlier work
# soybean = assay: Spray tank dicamba treated with ChD crude cell lysate, applied to field soybean; type: in vivo; conditions: field soybean V2-V3, 2 ml of tank sample (about 200 mg/L dicamba, with or without 5% v/v crude cell lysate for 10 minutes), one week after application (FIG. 15)
# Protocol: Chlorothalonil dehalogenase (ChD, SEQ ID NO: 168) was prepared as a crude cell lysate as described above in Example 5. […] A 5% v/v solution of the crude cell lysate containing the ChD enzyme was added and the tank was run for an additional 10 minutes. […] Each of the samples was frozen immediately after collection from the tank. Samples were transported to the field on ice to ensure that enzyme activity was halted.
# [4] = HPLC; for Dicamba (ppm): samples diluted to expected 35 ppm
# Protocol: A Bacillus subtilis (A64) control reaction, which was supernatant with no SM1 enzyme was performed in parallel. The reactions were incubated at 37° C. with 400 rpm stirring for two hours. Aliquots of the reactions were collected at time 0 (T0), 1 hour, and 2 hours, and frozen at −80° C.
# HPLC column (Kinetex® 5 μm C18 100 Å, LC Column 50×4.6 mm) was equilibrated for 15 minutes with 35% acetonitrile and 65% 10 mM ammonium acetate with 0.1% formic acid in water. A volume of 10 μL of each sample was injected into Waters 2695 Separations Module with a 2996 Photodiode Array Detector. Samples were run isocratically (35% acetonitrile and 65% 10 mM ammonium acetate with 0.1% formic acid in water) for 2 minutes. […] An average of 3 measurements was run for each treatment sample.
# The HPLC results as reported in FIG. 2 are the average of 3 sample measurements.
# soybean plants [5] = assay: Trifoliate damage scoring of soybean treated with SM1-dicamba reaction products; type: in vivo; set-up: key: 0: No visible damage; 1: youngest trifoliate has moderate yellowing or curling; 2: youngest trifoliate has moderate yellowing or curling; 3: youngest trifoliate has severe yellowing or curling; 4: youngest trifoliate is completely dead or shriveled; 5: plant is completely necrotic (dead); conditions: V1 soybean (Morsoy Xtra), 100 μL reaction product diluted 1:24 with 0.01% SILWET L-77 on trifoliate leaves, 6 plants; Time (hours) 2; scale 0-5
# Description: These SM1-dicamba degradation products were applied to soybean seedlings (variety, Morsoy Xtra). […] The plants were scored based on trifoliate damage using the scale as described in Table 27.
# [6] = oxidation of NADH
# Description: Spectra were read from 200-700 nm with a BioTek SYNERGY HTX plate reader (BioTek Instrument Inc.).
# NADH disappears when the molecule is oxidized to NAD^+.
# [7] = Sequestration of dicamba by ChD (3 kDa filter, absorbance at 230 nm); type: binding; conditions: dicamba 100 mg/L, 10, 20, 30 and 40 uL enzyme solution, 5 minutes at 37° C. (FIG. 18)
# Protocol: To four of the tubes, enzyme solution was added to four of the tubes at 10, 20, 30, and 40 uL rates. The two tubes without the enzyme solution served as controls for the experiment. When the enzyme was added, five of the tubes (one of the 0 uL enzyme tubes, and all of the tubes with the enzyme added) were placed in the Eppendorf Thermomixer R for 5 minutes, at 37° C., and 800 rpm. After the incubation period, the tubes were removed from the heat and placed on ice to stop the reaction. […] These new tubes were spun at 1400 rpm for five minutes. When the spin was completed, 100 uL of the top and bottom fractions were added into a 96-well UV-Star plate. Spectral readings were then taken from 200 nm to 340 nm. The reads for the buffer alone controls were subtracted from the experimental values. The relative difference between the control without enzyme added and the experimental samples with enzyme added was calculated at 230 nm.
# [8] = Absorbance spectra assay of mecoprop degradation by ChD or CAC; type: biochemical; conditions: one hour at 37° C.
# Protocol: (§1) Small scale (1 mL) assays were performed to evaluate the ability of ChD and CAC to degrade MCPA-4 amine or mecoprop.
# (§2) MCPA-4 amine and mecoprop have absorbance maxima (Amax) at approximately 230 and 280 nm. […] MCPA-4 amine or mecoprop end product generation is directly proportional to the degradation MCPA-4 amine or mecoprop, respectively.
# [9] = Absorbance spectra assay of MCPA-4 amine degradation by ChD or CAC; type: biochemical; conditions: one hour at 37° C.
# Protocol: as §1, §2
# [10] = Absorbance spectra assay of 2,4-D degradation by ChD or CAC; type: biochemical; conditions: one hour at 37° C.
# [11] = dicamba 100 ppm, n=6, scale 0-5
# [12] = dicamba (CLASH) 200 mg/L alone (no enzyme), 50 mM HEPES pH 7.0, one hour at 37° C.
molecule,measurement,setting,value
"COc1c(Cl)ccc(Cl)c1C(=O)O [Dicamba, 3,6-dichloro-2-methoxybenzoic acid]",Average Epinasty Score,soybean plants [1]; [11],3.0
same,average trifoliate damage score,soybean plants [1]; [11],3.5
same,average trifoliate damage score,"soybean plants [1]; dicamba alone at 100 ppm, 150 ppm and 200 ppm",3.5-3.6
same,Absorbance Maxima at Wavelength (λ) 230,[2]; [12],1.597 and 1.5967
same,Absorbance Maxima at Wavelength (λ) 259,[2]; [12],0.1597
same,Absorbance Maxima at Wavelength (λ) 280,[2]; [12],0.2845
same,"herbicide damage or protection from dicamba-induced injury, assessed visually",soybean seedlings,significant curling of the leaves and stunted growth
same,safe zone concentration in rinsate (no injury or harm to the plant or the environment),[3],≤ 15 mg/L
same,dicamba spray level at which sensitive plants show herbicide damage with pronounced symptoms,sensitive plants,0.017 kg/ha
same,damage to or protection of soybean crop (size and growth vs untreated control),soybean,significant damage to the crops
same,Percent Dicamba Concentration Relative to T0 control,[4]; Time 0 hours,100.0%
same,Dicamba (ppm),"[4]; Time 0 hours, 25 mM HEPES pH 7, 37° C.",34.9 ppm
same,Percent Dicamba Concentration Relative to T0 control,[4]; Time 1 hour,113.6%
same,Dicamba (ppm),"[4]; Time 1 hour, 25 mM HEPES pH 7, 0.5 mM NADH where stated, 37° C.",39.7 ppm
same,Percent Dicamba Concentration Relative to T0 control,[4]; Time 2 hours,106.0%
same,Dicamba (ppm),"[4]; Time 2 hours, 25 mM HEPES pH 7, 0.5 mM NADH where stated, 37° C.",37.0 ppm
same,average trifoliate damage score,soybean plants [5],4
same,Absorbance at 340 nM,[6]; Time 1 hour,0.059
same,Absorbance at 340 nM,[6]; Time 2 hours,0.058
same,Absorbance at 340 nM,[6]; Time T0,0.056
"ChD: chlorothalonil dehalogenase from Pseudomonas species strain CTN-3, amino acid SEQ ID NO: 168 (protein, listed as Pseudomonas sp.) MPPGCSGLCSFVGLTMPLKFSGVLCASLLTITLSVAAHATELILDFNKVQMRSQQLAPGVYAHLPADSAELNAKGGVAGTSGGLIVGTRGAMLIETMLNRRLFDQVQALAKKEALGLPLLYAVNTSYHGDHSYGNMYLKAPTRVIQSTKTRDYVDGHLADDKAFMVKNFGAGRGVEQITARTGDILVPPGGRVSVDLGGKTVEIIDFGFAQTGGDLFVWEPQSKVMWTGNAVVASKPALPWLLDGKLVETLATLQKVYDFLPPDATIVPGHGVPMAREGLRWHLDYLAAVQAGVKDALARKLSLEQTVTELKMPEFRGYVLFDWVHPDLNVPAAYKDLAARP",Percent (%) increase in 259 λ (end product formed) compared to dicamba control,"[2]; dicamba 200 mg/L + enzyme at 20X dilution (5 μM), one hour at 37° C.",501%
same,dicamba in a bound state (relative absorbance at 230 nm of 3 kDa filter fractions),[7],dose-dependent effect
same,Percent (%) increase in 252 λ (end-product formed) compared to Mecoprop control,[8]; mecoprop 200 mg/L + enzyme at 20X dilution (5 μM),164%
same,Percent (%) increase in 252 λ (end-product formed) compared to Mecoprop control,[8]; mecoprop 200 mg/L + enzyme at 40X dilution ([…]),129%
same,Percent (%) increase in 252 λ (end product formed) compared to MCPA-4-Amine control,[9]; MCPA-4 amine 200 mg/L + enzyme at 20X dilution (5 μM),464%
same,Percent (%) increase in 252 λ (end product formed) compared to MCPA-4-Amine control,[9]; MCPA-4 amine 200 mg/L + enzyme at 40X dilution ([…]),128.9%
same,"Percent (%) increase in 252 λ, (end product formed) compared to 2,4-D control","[10]; 2,4-D 200 mg/L + enzyme at 20X dilution (5 μM)",196%
same,"Percent (%) increase in 252 λ, (end product formed) compared to 2,4-D control","[10]; 2,4-D 200 mg/L + enzyme at 40X dilution ([…])",122%
same,damage to or protection of soybean crop (size and growth vs untreated control),soybean,almost complete protection of the plants
